Tests used:
[1] = target: Sodium/potassium-transporting ATPase subunit alpha-1 (Sus scrofa) (UniProt P05024); experiment: ATPASE(NA/K) Cerep selectivity data (BI); details: Compound concentration 20.0 uM
[2] = target: Histamine H1 receptor (Homo sapiens) (UniProt P35367); experiment: H1/PYRIL/HS Cerep selectivity data (BI); details: Compound concentration 20.0 uM
[3] = target: Kappa-type opioid receptor (Rattus norvegicus) (UniProt P34975); experiment: KAPPA/R Cerep selectivity data (BI); details: Compound concentration 20.0 uM
[4] = target: 72 kDa type IV collagenase (Homo sapiens) (UniProt P08253); experiment: MMP-2 (H) Cerep selectivity data (BI); details: Compound concentration 20.0 uM
[5] = target: Alpha-1D adrenergic receptor (Homo sapiens) (UniProt P25100); experiment: ALPHA1D/H Eurofins-Panlabs selectivity data (BI); details: Compound concentration 10.0 uM
[6] = target: Cysteinyl leukotriene receptor 1 (Homo sapiens) (UniProt Q9Y271); experiment: CYSLT1_HS Eurofins-Panlabs selectivity data (BI); details: Compound concentration 10.0 uM
[7] = target: Acetylcholine receptor subunit alpha (Homo sapiens) (UniProt P02708); experiment: NACH/H Eurofins-Panlabs selectivity data (BI); details: Compound concentration 10.0 uM
[8] = target: AMPK alpha2/beta1/gamma1 (Homo sapiens) (UniProt P54646+P54619+Q9Y478); experiment: AMPK A2B1G1 Invitrogen selectivity data (BI); type: protein-complex assay; details: Compound concentration 3.0 uM
[9] = target: Casein kinase I isoform gamma-1 (Homo sapiens) (UniProt Q9HCP0); experiment: CSNK1G1 Invitrogen selectivity data (BI); details: Compound concentration 3.0 uM
[10] = target: Ephrin type-A receptor 2 (Homo sapiens) (UniProt P29317); experiment: EPHA2 Invitrogen selectivity data (BI); details: Compound concentration 3.0 uM
[11] = target: Dual specificity mitogen-activated protein kinase kinase 2 (Homo sapiens) (UniProt P36507); experiment: MAP2K2 Invitrogen selectivity data (BI); details: Compound concentration 3.0 uM
[12] = target: T1, Dual specificity mitogen-activated protein kinase kinase 6 (Homo sapiens) (UniProt P52564); experiment: MAP2K6_S_T_E Invitrogen selectivity data (BI); details: Compound concentration 3.0 uM
T1 sequence (whole entry): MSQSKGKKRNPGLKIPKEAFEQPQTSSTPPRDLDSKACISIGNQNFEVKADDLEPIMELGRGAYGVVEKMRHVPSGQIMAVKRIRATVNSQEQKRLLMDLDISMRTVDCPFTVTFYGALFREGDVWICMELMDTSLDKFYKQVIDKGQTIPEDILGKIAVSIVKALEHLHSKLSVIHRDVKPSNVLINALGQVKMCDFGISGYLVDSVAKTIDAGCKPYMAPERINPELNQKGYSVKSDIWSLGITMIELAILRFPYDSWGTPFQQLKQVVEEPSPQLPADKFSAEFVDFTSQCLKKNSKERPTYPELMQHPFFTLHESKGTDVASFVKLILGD

[13] = target: Mitogen-activated protein kinase 11 (Homo sapiens) (UniProt Q15759); experiment: MAPK11 Invitrogen selectivity data (BI); details: Compound concentration 3.0 uM
[14] = target: Serine/threonine-protein kinase PAK 4 (Homo sapiens) (UniProt O96013); experiment: PAK4 Invitrogen selectivity data (BI); details: Compound concentration 3.0 uM
[15] = target: Phosphatidylinositol 3-kinase catalytic subunit type 3 (Homo sapiens) (UniProt Q8NEB9); experiment: PIK3C3 Invitrogen selectivity data (BI); details: Compound concentration 3.0 uM
[16] = target: T2, Serine/threonine-protein kinase D2 (Homo sapiens) (UniProt Q9BZL6); experiment: PRKD2 Invitrogen selectivity data (BI); details: Compound concentration 3.0 uM
T2 sequence (whole entry): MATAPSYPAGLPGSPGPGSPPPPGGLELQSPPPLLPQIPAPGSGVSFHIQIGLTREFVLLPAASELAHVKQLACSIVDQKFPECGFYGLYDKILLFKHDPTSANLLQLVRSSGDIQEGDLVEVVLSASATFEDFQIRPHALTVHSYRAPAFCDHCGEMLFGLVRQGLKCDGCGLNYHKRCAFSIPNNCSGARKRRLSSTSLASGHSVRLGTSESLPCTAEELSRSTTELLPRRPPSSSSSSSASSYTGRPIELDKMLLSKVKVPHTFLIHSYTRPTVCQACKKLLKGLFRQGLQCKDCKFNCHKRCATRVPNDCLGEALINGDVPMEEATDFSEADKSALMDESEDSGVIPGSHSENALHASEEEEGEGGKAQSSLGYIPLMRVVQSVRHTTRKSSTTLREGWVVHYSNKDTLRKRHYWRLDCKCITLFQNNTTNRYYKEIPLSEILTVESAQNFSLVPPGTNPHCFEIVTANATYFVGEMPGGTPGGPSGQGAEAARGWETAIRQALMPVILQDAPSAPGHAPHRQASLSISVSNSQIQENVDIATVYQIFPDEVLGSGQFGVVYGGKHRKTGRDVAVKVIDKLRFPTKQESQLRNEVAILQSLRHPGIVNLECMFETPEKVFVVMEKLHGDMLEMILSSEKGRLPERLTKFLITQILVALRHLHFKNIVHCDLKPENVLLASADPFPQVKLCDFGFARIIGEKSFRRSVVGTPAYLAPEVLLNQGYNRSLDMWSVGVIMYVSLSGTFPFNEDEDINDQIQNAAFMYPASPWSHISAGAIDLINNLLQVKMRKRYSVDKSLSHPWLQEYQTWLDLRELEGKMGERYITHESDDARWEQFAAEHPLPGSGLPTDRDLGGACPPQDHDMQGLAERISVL

[17] = target: T3, Dual specificity protein kinase TTK (Homo sapiens) (UniProt P33981); experiment: TTK Invitrogen selectivity data (BI); details: Compound concentration 3.0 uM
T3 sequence (whole entry): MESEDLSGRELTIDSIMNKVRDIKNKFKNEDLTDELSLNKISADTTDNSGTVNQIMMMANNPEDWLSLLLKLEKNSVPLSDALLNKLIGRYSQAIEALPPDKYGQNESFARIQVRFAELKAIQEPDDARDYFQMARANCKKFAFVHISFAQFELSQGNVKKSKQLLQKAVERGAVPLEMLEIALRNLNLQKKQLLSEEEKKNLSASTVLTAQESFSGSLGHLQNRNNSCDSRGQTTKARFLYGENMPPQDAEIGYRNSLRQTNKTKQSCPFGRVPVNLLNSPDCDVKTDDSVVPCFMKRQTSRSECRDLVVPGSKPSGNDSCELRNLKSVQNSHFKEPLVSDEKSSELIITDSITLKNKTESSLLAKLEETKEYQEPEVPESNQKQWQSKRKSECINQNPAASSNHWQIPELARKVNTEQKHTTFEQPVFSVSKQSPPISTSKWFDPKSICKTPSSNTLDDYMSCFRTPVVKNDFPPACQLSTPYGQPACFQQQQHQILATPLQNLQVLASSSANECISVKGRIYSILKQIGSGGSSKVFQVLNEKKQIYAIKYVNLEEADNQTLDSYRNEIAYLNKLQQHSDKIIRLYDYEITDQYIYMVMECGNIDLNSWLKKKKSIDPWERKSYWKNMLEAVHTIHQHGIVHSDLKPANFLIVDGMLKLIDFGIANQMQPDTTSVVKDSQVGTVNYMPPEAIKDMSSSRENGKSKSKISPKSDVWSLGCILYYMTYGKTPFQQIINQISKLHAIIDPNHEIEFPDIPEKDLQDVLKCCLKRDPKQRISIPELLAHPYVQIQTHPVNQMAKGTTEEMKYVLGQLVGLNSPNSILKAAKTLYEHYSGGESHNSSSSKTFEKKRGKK

Measured: residual activity

Kappa-type opioid receptor (Rattus norvegicus), sequence (P34975 whole entry): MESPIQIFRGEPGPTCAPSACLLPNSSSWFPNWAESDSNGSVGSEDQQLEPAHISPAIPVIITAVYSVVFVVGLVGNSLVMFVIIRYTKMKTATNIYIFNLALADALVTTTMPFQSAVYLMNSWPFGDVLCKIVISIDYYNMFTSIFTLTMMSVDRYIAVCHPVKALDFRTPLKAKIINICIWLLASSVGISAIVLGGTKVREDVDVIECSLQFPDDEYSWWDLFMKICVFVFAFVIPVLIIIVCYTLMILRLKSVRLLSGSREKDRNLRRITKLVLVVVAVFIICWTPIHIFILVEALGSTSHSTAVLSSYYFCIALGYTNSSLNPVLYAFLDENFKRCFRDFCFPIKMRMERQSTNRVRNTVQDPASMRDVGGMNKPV
Serine/threonine-protein kinase PAK 4 (Homo sapiens), sequence (O96013 whole entry, looked up): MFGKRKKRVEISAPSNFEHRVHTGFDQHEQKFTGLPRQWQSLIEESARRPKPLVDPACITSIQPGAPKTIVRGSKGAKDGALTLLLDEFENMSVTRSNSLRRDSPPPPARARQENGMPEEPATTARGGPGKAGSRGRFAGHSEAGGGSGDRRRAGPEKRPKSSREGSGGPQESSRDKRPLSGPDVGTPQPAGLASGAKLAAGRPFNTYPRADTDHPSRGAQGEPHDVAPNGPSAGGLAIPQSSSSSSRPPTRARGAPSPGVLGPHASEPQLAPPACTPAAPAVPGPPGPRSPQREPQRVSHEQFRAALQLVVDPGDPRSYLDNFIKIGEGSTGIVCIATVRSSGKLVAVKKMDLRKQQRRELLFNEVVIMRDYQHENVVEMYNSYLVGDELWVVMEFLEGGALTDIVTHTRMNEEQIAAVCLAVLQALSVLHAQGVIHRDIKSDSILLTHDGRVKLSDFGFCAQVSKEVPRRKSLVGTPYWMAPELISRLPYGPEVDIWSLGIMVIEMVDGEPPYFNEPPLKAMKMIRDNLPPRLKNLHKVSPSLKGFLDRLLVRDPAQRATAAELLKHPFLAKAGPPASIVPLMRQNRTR
Casein kinase I isoform gamma-1 (Homo sapiens), sequence (Q9HCP0 whole entry, looked up, canonical isoform): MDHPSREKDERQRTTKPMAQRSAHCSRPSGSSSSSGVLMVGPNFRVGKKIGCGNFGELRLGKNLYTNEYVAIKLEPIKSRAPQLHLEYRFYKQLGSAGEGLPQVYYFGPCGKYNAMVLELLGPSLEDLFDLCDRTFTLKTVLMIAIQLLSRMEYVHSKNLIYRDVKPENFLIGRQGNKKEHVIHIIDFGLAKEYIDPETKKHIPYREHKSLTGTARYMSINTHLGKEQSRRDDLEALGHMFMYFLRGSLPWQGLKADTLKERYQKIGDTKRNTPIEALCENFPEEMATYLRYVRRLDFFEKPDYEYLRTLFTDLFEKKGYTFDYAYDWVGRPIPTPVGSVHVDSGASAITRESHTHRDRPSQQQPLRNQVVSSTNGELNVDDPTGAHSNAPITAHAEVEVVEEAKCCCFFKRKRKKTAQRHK
Dual specificity mitogen-activated protein kinase kinase 2 (Homo sapiens), sequence (P36507 whole entry): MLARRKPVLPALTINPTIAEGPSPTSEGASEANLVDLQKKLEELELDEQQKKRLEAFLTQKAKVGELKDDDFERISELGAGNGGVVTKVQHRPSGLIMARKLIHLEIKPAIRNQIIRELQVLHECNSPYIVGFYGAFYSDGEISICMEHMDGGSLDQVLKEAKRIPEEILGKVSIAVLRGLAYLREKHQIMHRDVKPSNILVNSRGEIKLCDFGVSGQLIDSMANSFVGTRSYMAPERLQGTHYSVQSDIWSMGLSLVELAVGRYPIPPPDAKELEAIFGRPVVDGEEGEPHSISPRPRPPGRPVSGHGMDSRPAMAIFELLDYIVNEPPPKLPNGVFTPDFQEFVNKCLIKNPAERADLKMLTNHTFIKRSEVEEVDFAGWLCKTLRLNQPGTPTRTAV
Histamine H1 receptor (Homo sapiens), sequence (P35367 whole entry): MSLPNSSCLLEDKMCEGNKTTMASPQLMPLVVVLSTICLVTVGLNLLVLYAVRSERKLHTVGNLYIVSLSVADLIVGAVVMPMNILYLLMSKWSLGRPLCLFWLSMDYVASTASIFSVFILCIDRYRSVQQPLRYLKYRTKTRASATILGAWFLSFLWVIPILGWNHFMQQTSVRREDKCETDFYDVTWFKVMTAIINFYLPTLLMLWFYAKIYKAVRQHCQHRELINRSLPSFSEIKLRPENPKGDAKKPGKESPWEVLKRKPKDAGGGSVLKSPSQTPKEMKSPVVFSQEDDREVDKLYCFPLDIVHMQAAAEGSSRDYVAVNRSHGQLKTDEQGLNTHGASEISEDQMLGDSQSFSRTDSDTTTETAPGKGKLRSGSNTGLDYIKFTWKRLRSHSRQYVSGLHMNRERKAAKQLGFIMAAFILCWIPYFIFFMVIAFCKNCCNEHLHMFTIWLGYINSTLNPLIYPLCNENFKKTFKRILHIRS
Mitogen-activated protein kinase 11 (Homo sapiens), sequence (Q15759 whole entry): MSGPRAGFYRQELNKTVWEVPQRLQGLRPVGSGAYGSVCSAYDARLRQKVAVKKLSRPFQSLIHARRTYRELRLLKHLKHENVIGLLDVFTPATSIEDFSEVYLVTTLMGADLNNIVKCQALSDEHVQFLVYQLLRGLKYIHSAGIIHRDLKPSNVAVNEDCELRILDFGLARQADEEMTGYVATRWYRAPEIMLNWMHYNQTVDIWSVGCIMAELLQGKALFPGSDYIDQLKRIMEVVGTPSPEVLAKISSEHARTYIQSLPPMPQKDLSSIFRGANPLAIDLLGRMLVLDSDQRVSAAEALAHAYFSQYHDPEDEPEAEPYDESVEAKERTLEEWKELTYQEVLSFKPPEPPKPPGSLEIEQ
Cysteinyl leukotriene receptor 1 (Homo sapiens), sequence (Q9Y271 whole entry): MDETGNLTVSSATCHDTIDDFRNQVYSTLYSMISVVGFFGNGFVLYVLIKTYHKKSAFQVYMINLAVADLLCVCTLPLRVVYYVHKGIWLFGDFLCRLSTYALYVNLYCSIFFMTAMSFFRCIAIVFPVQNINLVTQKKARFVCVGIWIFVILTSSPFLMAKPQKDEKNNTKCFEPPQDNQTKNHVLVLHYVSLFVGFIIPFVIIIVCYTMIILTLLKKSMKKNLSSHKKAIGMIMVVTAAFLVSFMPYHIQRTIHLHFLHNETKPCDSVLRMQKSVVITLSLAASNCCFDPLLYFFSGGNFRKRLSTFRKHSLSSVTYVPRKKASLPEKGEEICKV
AMPK alpha2/beta1/gamma1 (Homo sapiens), sequence (P54619 whole entry partner, canonical isoform): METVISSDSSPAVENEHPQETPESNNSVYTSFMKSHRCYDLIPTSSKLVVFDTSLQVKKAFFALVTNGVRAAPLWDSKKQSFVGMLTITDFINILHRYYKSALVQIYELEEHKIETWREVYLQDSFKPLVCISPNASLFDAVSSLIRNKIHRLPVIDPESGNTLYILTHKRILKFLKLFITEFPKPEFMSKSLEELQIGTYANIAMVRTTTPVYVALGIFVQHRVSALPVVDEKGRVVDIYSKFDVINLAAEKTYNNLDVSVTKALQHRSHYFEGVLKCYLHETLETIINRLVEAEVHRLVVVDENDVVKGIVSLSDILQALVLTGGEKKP
AMPK alpha2/beta1/gamma1 (Homo sapiens), sequence (P54646 whole entry, canonical isoform): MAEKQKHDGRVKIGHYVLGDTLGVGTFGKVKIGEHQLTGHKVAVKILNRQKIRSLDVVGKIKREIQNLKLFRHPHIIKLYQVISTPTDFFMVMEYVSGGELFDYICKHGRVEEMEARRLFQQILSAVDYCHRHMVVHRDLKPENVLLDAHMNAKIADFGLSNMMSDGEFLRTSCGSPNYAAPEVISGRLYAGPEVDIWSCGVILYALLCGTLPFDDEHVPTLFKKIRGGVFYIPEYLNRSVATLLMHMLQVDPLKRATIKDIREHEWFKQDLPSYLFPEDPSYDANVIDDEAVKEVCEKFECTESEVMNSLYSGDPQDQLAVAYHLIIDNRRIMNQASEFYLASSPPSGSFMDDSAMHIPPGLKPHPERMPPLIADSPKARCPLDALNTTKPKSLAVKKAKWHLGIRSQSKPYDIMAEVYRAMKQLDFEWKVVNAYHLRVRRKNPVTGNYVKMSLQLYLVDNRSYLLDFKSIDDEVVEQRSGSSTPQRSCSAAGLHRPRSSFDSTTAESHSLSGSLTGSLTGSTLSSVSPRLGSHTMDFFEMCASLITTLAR
AMPK alpha2/beta1/gamma1 (Homo sapiens), sequence (Q9Y478 2-270 partner limits assumed): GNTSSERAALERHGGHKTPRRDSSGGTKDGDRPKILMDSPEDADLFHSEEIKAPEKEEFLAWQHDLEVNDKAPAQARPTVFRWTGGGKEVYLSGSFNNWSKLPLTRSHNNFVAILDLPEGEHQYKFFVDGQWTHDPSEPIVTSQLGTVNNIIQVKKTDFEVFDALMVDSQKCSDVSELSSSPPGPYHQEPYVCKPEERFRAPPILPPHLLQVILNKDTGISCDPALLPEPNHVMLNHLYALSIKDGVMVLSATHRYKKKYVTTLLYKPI
72 kDa type IV collagenase (Homo sapiens), sequence (P08253 110-660 limits assumed): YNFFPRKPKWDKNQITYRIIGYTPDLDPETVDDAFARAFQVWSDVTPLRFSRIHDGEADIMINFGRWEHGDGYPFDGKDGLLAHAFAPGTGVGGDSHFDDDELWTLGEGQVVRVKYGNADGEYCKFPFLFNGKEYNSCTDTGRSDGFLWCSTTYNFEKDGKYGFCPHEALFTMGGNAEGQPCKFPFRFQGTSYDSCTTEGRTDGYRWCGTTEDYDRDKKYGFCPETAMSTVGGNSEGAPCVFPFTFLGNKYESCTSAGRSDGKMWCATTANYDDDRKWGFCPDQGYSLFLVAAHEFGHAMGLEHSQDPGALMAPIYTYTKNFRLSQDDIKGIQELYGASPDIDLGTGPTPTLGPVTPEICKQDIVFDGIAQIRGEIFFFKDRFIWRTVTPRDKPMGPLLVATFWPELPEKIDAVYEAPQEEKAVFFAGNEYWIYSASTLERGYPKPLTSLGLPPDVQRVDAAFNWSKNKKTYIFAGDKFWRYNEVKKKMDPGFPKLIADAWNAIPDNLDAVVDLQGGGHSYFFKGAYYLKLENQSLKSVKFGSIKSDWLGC

CN(C)C(=O)Cn1cc(-c2nc([C@@](C)(c3ccc(-c4cnc(N)nc4)cc3)C3CC3)no2)cn1 [BI 665915]
inactive: [1] 99% | [2] 89% | [3] 91% | [4] 96% | [5] 107% | [6] 100% | [7] 97% | [8] 100% | [9] 97.5% | [10] 99% | [11] 96% | [12] 100% | [13] 93% | [14] 93.5% | [15] 94.5% | [16] 95% | [17] 98%

Source: ChEMBL document CHEMBL4507276 (2021)
